Each molecule was assayed against MMP-13 (Homo sapiens, UniProt P45452) (assay: EnzoLyte 520 Generic MMP Assay Kit, 5-FAM/QXL520 FRET peptide substrate).
Format: biochemical
Text: The EnzoLyte™ 520 Generic MMP Assay Kit (AnaSpec Inc.) can detect the activity of several MMPs including MMP-1, 2, 3, 7, 8, 9, 13, and 14. This kit uses a 5-FAM/QXL™520 fluorescence resonance energy transfer (FRET) peptide as an MMP substrate.

IC50 | Compound
0.15 µM | CNC(=O)[C@@H](NC(=O)c1ccc(-c2ccc(NC(=O)c3cncc(C)c3)cc2)o1)C1CCCCC1 [N-[4-(5-{[(1S)-1-cyclohexyl-2-(methylamino)-2-oxoethyl]carbamoyl}furan-2-yl)phenyl]-5-methylpyridine-3-carboxamide]
0.017 µM | CNC(=O)[C@@H](NC(=O)c1ccc(-c2ccc(NC(=O)c3cccc(C)n3)cc2)o1)C1CCCCC1 [N-[4-(5-{[(1S)-1-cyclohexyl-2-(methylamino)-2-oxoethyl]carbamoyl}furan-2-yl)phenyl]-6-methylpyridine-2-carboxamide]
0.109 µM | CNC(=O)[C@@H](NC(=O)c1ccc(-c2ccc(NC(=O)c3cn4ccccc4n3)cc2)o1)C1CCCCC1 [N-[4-(5-{[(1S)-1-cyclohexyl-2-(methylamino)-2-oxoethyl]carbamoyl}furan-2-yl)phenyl]imidazo[1,2-a]pyridine-2-carboxamide]
0.47 µM | CNC(=O)[C@@H](NC(=O)c1ccc(-c2ccc([N+](=O)[O-])cc2)o1)C1CCCCC1 [N-[(1S)-1-cyclohexyl-2-(methylamino)-2-oxoethyl)-5-(4-nitrophenyl)furan-2-carboxamide]
0.074 µM | CNC(=O)[C@@H](NC(=O)c1ccc(-c2ccc([N+](=O)[O-])cn2)o1)C1CCCCC1 [N-[(1S)-1-cyclohexyl-2-(methylamino)-2-oxoethyl)-5-(5-nitropyridin-2-yl)furan-2-carboxamide]
0.157 µM | CNC(=O)[C@@H](NC(=O)c1ccc(-c2cccc(CNC(=O)C(C)C)c2)o1)C1CCCCC1 [N-[(1S)-1-cyclohexyl-2-(methylamino)-2-oxoethyl]-5-(3-{[(2-methylpropanoyl)amino]methyl}phenyl)furan-2-carboxamide]

Continued, molecule first:

Compound | IC50
CNC(=O)[C@@H](NC(=O)c1ccc(-c2ccc(NC(=O)c3cn4cccc(C)c4n3)cc2)o1)C1CCCCC1 [N-[4-(5-{[(1S)-1-cyclohexyl-2-(methylamino)-2-oxoethyl]carbamoyl}furan-2-yl)phenyl]-8-methylimidazo[1,2-a]pyridine-2-carboxamide] | 0.099 µM
Cc1cccc(C(=O)Nc2ccc(-c3ccc(C(=O)N[C@H](C(=O)NC[C@@H](C)O)C4CCCCC4)o3)cc2)n1 [N-[4-(5-{[(1S)-1-cyclohexyl-2-{[(2R)-2-hydroxypropyl]amino}-2-oxoethyl]carbamoyl}furan-2-yl)phenyl]-6-methylpyridine-2-carboxamide] | 0.022 µM
COC[C@H](C)NC(=O)[C@@H](NC(=O)c1ccc(-c2ccc(NC(=O)c3cccc(C)n3)cc2)o1)C1CCCCC1 [N-[4-(5-{[(1S)-1-cyclohexyl-2-{[(2S)-1-methoxypropan-2-yl]amino}-2-oxoethyl]carbamoyl}furan-2-yl)phenyl]-6-methylpyridine-2-carboxamide] | 0.032 µM
Cc1cccc(C(=O)Nc2ccc(-c3ccc(C(=O)N[C@H](C(=O)NC[C@H](C)O)C4CCCCC4)o3)cc2)n1 [N-[4-(5-{[(1S)-1-cyclohexyl-2-{[(2S)-2-hydroxypropyl]amino}-2-oxoethyl]carbamoyl}furan-2-yl)phenyl]-6-methylpyridine-2-carboxamide] | 0.023 µM
CNC(=O)[C@@H](NC(=O)c1ccc(-c2ccc(NC(=O)c3cccc(C)n3)cc2)o1)C1CC1 [N-[4-(5-{[(1S)-1-cyclopropyl-2-(methylamino)-2-oxoethyl]carbamoyl}furan-2-yl)phenyl]-6-methylpyridine-2-carboxamide] | 0.069 µM
CNC(=O)[C@@H](NC(=O)c1ccc(-c2ccc(NC(=O)c3cc4ccccc4o3)cn2)o1)C1CCCCC1 [N-[6-(5-{[(1S)-1-cyclohexyl-2-(methylamino)-2-oxoethyl]carbamoyl}furan-2-yl)pyridin-3-yl]-1-benzofuran-2-carboxamide] | 0.03 µM
CNC(=O)[C@@H](NC(=O)c1ccc(-c2ccc(NC(=O)c3cccc(C)n3)cn2)o1)C1CCCCC1 [N-[6-(5-{[(1S)-1-cyclohexyl-2-(methylamino)-2-oxoethyl]carbamoyl}furan-2-yl)pyridin-3-yl]-6-methylpyridine-2-carboxamide] | 0.007 µM

Reference: patent US8637550B2, “Heteroaryl diamide compounds useful as MMP-13 inhibitors” (Boehringer Ingelheim International GmbH, priority 2008, dated 2014)
